Assay results reported in PubChem BioAssay (NCI).
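Protocol summary: plate cells (96-well), add compound at 5 concentrations, incubate 48 h, interpolate endpoints linearly. TGI: concentration producing complete growth inhibition.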

Experiments:
Assay in all cases: inhibition of tumour cell growth, NCI panel, 48 h
U251 CNS = test system: U251 CNS
K-562 leukemia = test system: K-562 leukemia
UO-31 renal = test system: UO-31 renal
SK-MEL-28 melanoma = test system: SK-MEL-28 melanoma
NCI-H226 lung = test system: NCI-H226 lung
SW-620 colon = test system: SW-620 colon

SMILES	TGI (U251 CNS)	TGI (K-562 leukemia)	TGI (UO-31 renal)	TGI (SK-MEL-28 melanoma)	TGI (NCI-H226 lung)	TGI (SW-620 colon)
CC1=C(C#N)C(=O)N(/N=C/c2ccc(Cl)cc2)C(=O)/C1=c1\o/c(=C2/C(=O)N(/N=C/c3ccc(Cl)cc3)C(=O)C(C#N)=C2C)c2nccnc12	> 100 µM	> 100 µM	> 100 µM	> 100 µM	> 100 µM	> 100 µM
CNC(=O)C(C)NC(=O)C(Cc1ccccc1)NC(=O)OC(C)(C)C (centres undefined)	> 100 µM	> 100 µM	> 100 µM	> 100 µM	> 100 µM	> 100 µM
CCC/C(Cl)=N\OC(=O)Nc1ccc(Br)cc1	32.1 µM	4.15 µM	25.7 µM	32.5 µM	44 µM	5.52 µM
COC(=O)CC1CN(C(=O)OCc2ccccc2)C(C)(C)O1 (centres undefined)	> 100 µM	> 100 µM	> 100 µM	> 100 µM	22.7 µM	> 100 µM
Cn1c(=S)[nH]c2c(Cl)cc(Cl)cc2c1=O	> 100 µM	–	> 100 µM	> 100 µM	–	> 100 µM
CC(=O)NNc1nc(C)c(C(/C=C/c2ccccc2O)=N/NC(=O)c2ccncc2)s1	> 100 µM	–	> 100 µM	> 100 µM	> 100 µM	> 100 µM
C=CCN1C(=O)N/C(=C\c2ccc(Cl)cc2)C1=O	> 100 µM	> 100 µM	–	> 100 µM	> 100 µM	> 100 µM
Cc1cc(Cl)ccc1NC(=O)/C(CC(=O)CC(c1ccccc1)c1c(O)c2ccccc2oc1=O)=N\O (centres undefined)	> 100 µM	–	> 100 µM	> 100 µM	> 100 µM	> 100 µM
C=C1[C@H](OCC(C)C)[C@@H](OCC(C)C)[C@@H](O)C(C)(C)/C=C/[C@H](C)C(=O)[C@@]2(O)C[C@H](C)[C@H](O)[C@@H]2[C@H]1OCC(C)C	> 7.5 µM	> 7.5 µM	> 7.5 µM	–	–	> 7.5 µM
CC/C(=C/OC)P1(=O)OC(C)(C)CN1C(C)(C)C (centres undefined)	> 100 µM	> 100 µM	> 100 µM	–	> 100 µM	> 100 µM
CN=C1Nc2ccccc2C(=S)N2CSC[C@@H]12	> 100 µM	> 100 µM	> 100 µM	> 100 µM	–	> 100 µM
CC1=C(C(=O)OC23CC4CC(CC(C4)C2)C3)C(c2ccccc2OC(F)F)C(C(=O)OC23CC4CC(CC(C4)C2)C3)=C(C)N1 (centres undefined)	> 100 µM	–	> 100 µM	> 100 µM	> 100 µM	> 100 µM
[N-]=[N+]=Nc1cc(=O)n(-c2ccccc2)c(=O)n1-c1ccccc1	> 100 µM	> 100 µM	> 100 µM	> 100 µM	> 100 µM	> 100 µM
c1ccc2c(OCC3CO3)ccc(OCC3CO3)c2c1 (centres undefined)	6.32 µM	16.8 µM	3.15 µM	21.5 µM	27.7 µM	4.03 µM
CCOC(=O)c1c(-c2ccc(Cl)cc2)c(C#N)c(=S)n(C2OC(CO)C(O)C(O)C2O)c1-c1ccccc1 (centres undefined)	32 µM	70.9 µM	> 100 µM	38.7 µM	–	46.7 µM
CC(=O)OCCC[C@@H]1C(=C(C)C)CCC2[C@@]1(C)CC[C@@]1(C)C[C@](C)(CCC=C(C)C)CC[C@]21C (some centres undefined)	> 100 µM	–	46.1 µM	> 100 µM	> 100 µM	> 100 µM
CC1(C)C[C@H]2C3=CC[C@@H]4[C@@]5(C)CC[C@H](O)C(C)(C)[C@@H]5CC[C@@]4(C)[C@]3(C)C[C@@H](O)[C@@]23C[C@@H]1OC3=O	> 100 µM	> 100 µM	> 100 µM	> 100 µM	–	> 100 µM
c1ccc2c(c1)n1c(N3CCOCC3)[n+]3ccccc3c1c1c3cccc[n+]3c(N3CCOCC3)n21	> 100 µM	> 100 µM	–	> 100 µM	> 100 µM	> 100 µM
Cc1cc2c(cc1Cl)SC(NNC(=O)c1ccncc1)=NS2(=O)=O	> 10 µM	> 10 µM	–	> 10 µM	> 10 µM	> 10 µM
CC(C)CC(NC(=O)OCc1ccccc1)C(=O)NCCCCC(N)C(=O)NC(CCCCNC(=O)C(CC(C)C)NC(=O)OCc1ccccc1)C(=O)NC(CCCCNC(=O)C(CC(C)C)NC(=O)OCc1ccccc1)C(=O)NC(CCCCNC(=O)C(CC(C)C)NC(=O)OCc1ccccc1)C(=O)NC(CCCCNC(=O)C(CC(C)C)NC(=O)OCc1ccccc1)C(=O)NC(CCCCNC(=O)C(CC(C)C)NC(=O)OCc1ccccc1)C(=O)O (centres undefined)	> 100 µM	> 100 µM	> 100 µM	–	> 100 µM	> 100 µM
COCC1OCCN1C (centres undefined)	> 100 µM	> 100 µM	> 100 µM	–	> 100 µM	> 100 µM
